# Data: ChEMBL document CHEMBL1201862, “PubChem BioAssay data set” (2004)
#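 Where inhibition never reached the appropriate level, the endpoint shown equals the highest concentration tested. Otherwise, values were interpolated linearly from a five-concentration, 48-hour dose response in 96-well plates. GI50 = concentration required for 50% inhibition of growth.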 Calls of active or inactive are those of the source. Rule as the data show it: active = GI50 up to about 1.1 µM and inactive = higher.
# How the values were obtained:
# Assay in all cases: growth of human tumour cells (NCI), 48 h
# [1] = test system: BT-549
# [2] = test system: HCT-15
# [3] = test system: IGROV-1
# [4] = test system: RPMI-8226
# [5] = test system: T47D
# [6] = test system: PC-3
# [7] = test system: CCRF-CEM
# [8] = test system: OVCAR-4
# [9] = test system: A549
# [10] = test system: HOP-62
# [11] = test system: TK-10
# [12] = test system: KM12
# [13] = test system: 786-0
# [14] = test system: HT-29
# [15] = test system: SF-268
# [16] = test system: SK-OV-3
# [17] = test system: K562
# [18] = test system: SK-MEL-2
# [19] = test system: UACC-257
# [20] = test system: NCI/ADR-RES
# [21] = test system: UACC-62
# [22] = test system: HCT-116
# [23] = test system: SNB-75
# [24] = test system: A498
# [25] = test system: SNB-19
# [26] = test system: COLO 205
# [27] = test system: OVCAR-3
# [28] = test system: MDA-MB-435
# [29] = test system: OVCAR-8
# [30] = test system: Hs-578T
# [31] = test system: SK-MEL-28
# [32] = test system: EKVX
# [33] = test system: UO-31
# [34] = test system: MOLT-4
# [35] = test system: NCI-H460
# [36] = test system: SK-MEL-5
# [37] = test system: ACHN
# [38] = test system: SN12C
# [39] = test system: SR
# [40] = test system: RXF 393
# [41] = test system: SF-295
# [42] = test system: DU-145
# [43] = test system: LOX IMVI
# [44] = test system: CAKI-1
# [45] = test system: MDA-MB-231
# [46] = test system: NCI-H226
# [47] = test system: M14
# [48] = test system: NCI-H23
# [49] = test system: OVCAR-5
# [50] = test system: HOP-92
# [51] = test system: SF-539
# [52] = test system: HCC 2998
# [53] = test system: MDA-N
# [54] = test system: U-251
# [55] = test system: HL-60
# [56] = test system: SW-620
# [57] = test system: MCF7
# [58] = test system: Malme-3M
# [59] = test system: NCI-H522
structure (smiles),measurement,setting,value
CCOC(=O)c1ccc2nc3n(c2c1)C(c1c(F)cccc1F)SC3 (stereo unspecified),GI50,[1],> 100 µM (inactive)
same,GI50,[2],> 100 µM
same,GI50,[3],86.7 µM (inactive)
same,GI50,[4],> 100 µM (inactive)
same,GI50,[5],> 100 µM (inactive)
same,GI50,[6],72.1 µM (inactive)
same,GI50,[7],> 100 µM (inactive)
same,GI50,[8],> 100 µM (inactive)
same,GI50,[9],79.1 µM (inactive)
same,GI50,[10],57.3 µM (inactive)
same,GI50,[11],> 100 µM (inactive)
same,GI50,[12],81.8 µM (inactive)
same,GI50,[13],55.7 µM (inactive)
same,GI50,[14],> 100 µM (inactive)
same,GI50,[15],> 100 µM (inactive)
same,GI50,[16],> 100 µM (inactive)
same,GI50,[17],> 100 µM (inactive)
same,GI50,[18],> 100 µM (inactive)
same,GI50,[19],> 100 µM (inactive)
same,GI50,[20],> 100 µM (inactive)
same,GI50,[21],> 100 µM (inactive)
same,GI50,[22],50.4 µM (inactive)
same,GI50,[23],> 100 µM (inactive)
same,GI50,[24],> 100 µM (inactive)
same,GI50,[25],95.3 µM (inactive)
same,GI50,[26],> 100 µM (inactive)
same,GI50,[27],67.1 µM (inactive)
same,GI50,[28],> 100 µM (inactive)
same,GI50,[29],> 100 µM (inactive)
same,GI50,[30],> 100 µM (inactive)
same,GI50,[31],> 100 µM (inactive)
same,GI50,[32],29.9 µM (inactive)
same,GI50,[33],> 100 µM (inactive)
same,GI50,[34],> 100 µM (inactive)
same,GI50,[35],> 100 µM (inactive)
same,GI50,[36],> 100 µM (inactive)
same,GI50,[37],84.1 µM (inactive)
same,GI50,[38],> 100 µM (inactive)
same,GI50,[39],49.3 µM (inactive)
same,GI50,[40],24.9 µM (inactive)
same,GI50,[41],> 100 µM (inactive)
same,GI50,[42],> 100 µM (inactive)
same,GI50,[43],> 100 µM (inactive)
same,GI50,[44],> 100 µM (inactive)
same,GI50,[45],> 100 µM (inactive)
same,GI50,[46],15.1 µM (inactive)
same,GI50,[47],> 100 µM (inactive)
same,GI50,[48],78.9 µM (inactive)
same,GI50,[49],> 100 µM (inactive)
same,GI50,[50],> 100 µM (inactive)
same,GI50,[51],> 100 µM (inactive)
same,GI50,[52],> 100 µM (inactive)
same,GI50,[53],> 100 µM (inactive)
same,GI50,[54],> 100 µM (inactive)
same,GI50,[55],> 100 µM (inactive)
same,GI50,[56],> 100 µM (inactive)
same,GI50,[57],56.8 µM (inactive)
c1ccc(B2OCC(C3OB(c4ccccc4)OC4COB(c5ccccc5)OC43)O2)cc1 (stereo unspecified),GI50,[1],> 100 µM (inactive)
same,GI50,[2],> 100 µM
same,GI50,[3],> 100 µM (inactive)
same,GI50,[4],> 100 µM (inactive)
same,GI50,[5],> 100 µM (inactive)
same,GI50,[6],> 100 µM (inactive)
same,GI50,[7],> 100 µM (inactive)
same,GI50,[8],> 100 µM (inactive)
same,GI50,[9],> 100 µM (inactive)
same,GI50,[10],> 100 µM (inactive)
same,GI50,[11],> 100 µM (inactive)
same,GI50,[12],> 100 µM (inactive)
same,GI50,[13],> 100 µM (inactive)
same,GI50,[14],> 100 µM (inactive)
same,GI50,[15],> 100 µM (inactive)
same,GI50,[16],> 100 µM (inactive)
same,GI50,[17],> 100 µM (inactive)
same,GI50,[18],> 100 µM (inactive)
same,GI50,[19],> 100 µM (inactive)
same,GI50,[20],> 100 µM (inactive)
same,GI50,[21],> 100 µM (inactive)
same,GI50,[22],> 100 µM (inactive)
same,GI50,[23],> 100 µM (inactive)
same,GI50,[24],> 100 µM (inactive)
same,GI50,[25],> 100 µM (inactive)
same,GI50,[26],> 100 µM (inactive)
same,GI50,[27],> 100 µM (inactive)
same,GI50,[28],> 100 µM (inactive)
same,GI50,[29],> 100 µM (inactive)
same,GI50,[30],> 100 µM (inactive)
same,GI50,[31],> 100 µM (inactive)
same,GI50,[32],> 100 µM (inactive)
same,GI50,[33],> 100 µM (inactive)
same,GI50,[58],> 100 µM (inactive)
same,GI50,[34],> 100 µM (inactive)
same,GI50,[35],> 100 µM (inactive)
same,GI50,[36],> 100 µM (inactive)
same,GI50,[37],> 100 µM (inactive)
same,GI50,[38],> 100 µM (inactive)
same,GI50,[39],> 100 µM (inactive)
same,GI50,[40],> 100 µM (inactive)
same,GI50,[41],> 100 µM (inactive)
same,GI50,[59],24.5 µM (inactive)
same,GI50,[42],> 100 µM (inactive)
same,GI50,[43],> 100 µM (inactive)
same,GI50,[44],> 100 µM (inactive)
same,GI50,[45],> 100 µM (inactive)
same,GI50,[47],> 100 µM (inactive)
same,GI50,[48],> 100 µM (inactive)
same,GI50,[49],> 100 µM (inactive)
same,GI50,[50],> 100 µM (inactive)
same,GI50,[51],> 100 µM (inactive)
same,GI50,[53],> 100 µM (inactive)
same,GI50,[54],> 100 µM (inactive)
same,GI50,[56],> 100 µM (inactive)
same,GI50,[57],> 100 µM (inactive)
CC1(C=O)CC(CCc2ccccc2)NC1Cc1ccc(O)cc1 (stereo unspecified),GI50,[1],22.9 µM (inactive)
same,GI50,[2],21.3 µM
same,GI50,[3],14 µM (inactive)
same,GI50,[4],16.2 µM (inactive)
same,GI50,[5],15.8 µM (inactive)
same,GI50,[6],13.8 µM (inactive)
same,GI50,[7],20.2 µM (inactive)
same,GI50,[8],14.2 µM (inactive)
same,GI50,[9],15.4 µM (inactive)
same,GI50,[10],18.6 µM (inactive)
same,GI50,[11],17.3 µM (inactive)
same,GI50,[12],18.2 µM (inactive)
same,GI50,[13],15.2 µM (inactive)
same,GI50,[14],14.9 µM (inactive)
same,GI50,[15],16.6 µM (inactive)
same,GI50,[16],17.4 µM (inactive)
same,GI50,[17],16.7 µM (inactive)
same,GI50,[18],14.8 µM (inactive)
same,GI50,[19],15.1 µM (inactive)
same,GI50,[20],18.8 µM (inactive)
same,GI50,[21],16.6 µM (inactive)
same,GI50,[22],15.6 µM (inactive)
same,GI50,[23],14.7 µM (inactive)
same,GI50,[24],14.6 µM (inactive)
same,GI50,[25],14.5 µM (inactive)
same,GI50,[26],10.6 µM (inactive)
same,GI50,[27],17 µM (inactive)
same,GI50,[28],17.4 µM (inactive)
same,GI50,[29],21 µM (inactive)
same,GI50,[30],19.5 µM (inactive)
same,GI50,[31],22.1 µM (inactive)
same,GI50,[32],15.2 µM (inactive)
same,GI50,[33],14.5 µM (inactive)
same,GI50,[34],14.1 µM (inactive)
same,GI50,[35],16.6 µM (inactive)
same,GI50,[36],15.6 µM (inactive)
same,GI50,[37],15.3 µM (inactive)
same,GI50,[38],16.9 µM (inactive)
same,GI50,[39],12 µM (inactive)
same,GI50,[40],15.7 µM (inactive)
same,GI50,[41],17.7 µM (inactive)
same,GI50,[59],19.4 µM (inactive)
same,GI50,[42],17.5 µM (inactive)
same,GI50,[43],17 µM (inactive)
same,GI50,[44],14.8 µM (inactive)
same,GI50,[45],13.6 µM (inactive)
same,GI50,[46],15.5 µM (inactive)
same,GI50,[47],15.6 µM (inactive)
same,GI50,[48],23 µM (inactive)
same,GI50,[49],17.4 µM (inactive)
same,GI50,[50],15.3 µM (inactive)
same,GI50,[51],15.3 µM (inactive)
same,GI50,[52],11.6 µM (inactive)
same,GI50,[53],17.4 µM (inactive)
same,GI50,[54],13.7 µM (inactive)
same,GI50,[55],12.6 µM (inactive)
same,GI50,[56],23.3 µM (inactive)
same,GI50,[57],14.1 µM (inactive)
